Source: patent publication US9452980B2, “Substituted benzamides” (Hoffmann-La Roche Inc., priority 2009, dated 2016)
Where a name gives a salt, the structure may show the parent alone. Read-outs that look alike come from different tables or passages of the source.

What was measured:
[1] = biological target: mouse TAAR1 (Mus musculus (Mouse), UniProt Q923Y8); assay: Radioligand binding assay on mouse TAAR1; details: read-out: Ki (μM) mouse
Method in brief: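 Displacement of the tritiated oxazol-2-ylamine radioligand was measured by filtration and scintillation counting after 1 h incubation at 4 °C. Test concentrations ran 10 pM–10 μM in duplicate, with 10 μM cold ligand giving nonspecific binding. The receptor source was membranes of a stable mouse TAAR1 HEK293 line.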

[2] = biological target: rat TAAR1 (Rattus norvegicus (Rat), UniProt Q923Y9); assay: Radioligand binding assay on rat TAAR1; details: read-out: Ki (μM) rat
Method in brief: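 Membranes from HEK293 cells stably expressing rat TAAR1, with Kd checked per batch by saturation. Competition with ³H-(S)-4-[(ethyl-phenyl-amino)-methyl]-4,5-dihydro-oxazol-2-ylamine, compounds 10 pM–10 μM in duplicate, 1 hr at 4 °C. Filtration then scintillation counting; nonspecific binding defined with 10 μM unlabeled ligand.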

[3] = mouse TAAR1, HEK-293 membranes, first value of cell mouse/rat
[4] = rat TAAR1, HEK-293 membranes, second value of cell mouse/rat

rat TAAR1, sequence (Q923Y9 whole entry): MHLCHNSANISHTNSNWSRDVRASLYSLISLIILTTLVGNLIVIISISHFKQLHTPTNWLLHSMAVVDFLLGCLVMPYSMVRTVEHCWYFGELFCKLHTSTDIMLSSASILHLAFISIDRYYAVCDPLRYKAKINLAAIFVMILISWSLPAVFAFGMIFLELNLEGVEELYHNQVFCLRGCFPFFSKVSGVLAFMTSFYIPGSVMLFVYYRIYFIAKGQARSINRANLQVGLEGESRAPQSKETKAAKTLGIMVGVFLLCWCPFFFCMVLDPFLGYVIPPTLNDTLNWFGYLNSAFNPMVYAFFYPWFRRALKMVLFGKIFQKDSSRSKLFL
mouse TAAR1, sequence (Q923Y8 whole entry): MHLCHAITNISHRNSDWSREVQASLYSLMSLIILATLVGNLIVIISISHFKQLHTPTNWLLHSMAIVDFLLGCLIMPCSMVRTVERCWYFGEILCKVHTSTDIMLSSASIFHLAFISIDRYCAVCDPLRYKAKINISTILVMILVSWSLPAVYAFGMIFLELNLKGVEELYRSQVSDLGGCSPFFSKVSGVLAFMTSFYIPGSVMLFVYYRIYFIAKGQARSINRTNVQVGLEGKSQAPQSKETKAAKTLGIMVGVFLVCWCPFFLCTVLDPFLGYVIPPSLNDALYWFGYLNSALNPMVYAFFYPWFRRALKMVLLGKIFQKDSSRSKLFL

Ki [1, 3] [µM] | Ki [2, 4] [µM] | SMILES | Ki [1] [µM] | Ki [2] [µM]
0.018 | 0.0044 | CCc1ccc(C(=O)Nc2ccc([C@@H]3CCCNC3)cc2)cn1 [Example 297, (S)-6-Ethyl-N-(4-(piperidin-3-yl)phenyl)nicotinamide] | – | –
0.0509 | 0.007 | O=C(Nc1ccc([C@H]2CNCCO2)cc1)c1ccc(Cl)cc1I [Example 301, (S)-4-Chloro-2-iodo-N-(4-(morpholin-2-yl)phenyl)benzamide] | – | –
0.287 | 0.0018 | O=C(Nc1ccc([C@H]2CNCCCO2)cc1)c1cccc(Cl)c1 [Example 308, (S)—N-(4-(1,4-Oxazepan-2-yl)phenyl)-3-chlorobenzamide hydrochloride] | – | –
0.547 | 0.0154 | O=C(NCc1ccc([C@@H]2CNCCO2)cc1)c1cccc(Cl)c1 [Example 313, (R)-3-Chloro-N-(4-(morpholin-2-yl)benzyl)benzamide hydrochloride] | – | –
1.89 | 0.0062 | O=C(NCc1ccc([C@@H]2CNCCO2)cc1)c1ccc(Cl)cc1 [Example 314, (R)-4-Chloro-N-(4-(morpholin-2-yl)benzyl)benzamide hydrochloride] | – | –
1.35 | 0.009 | O=C(NCc1ccc([C@@H]2CNCCO2)cc1)c1ccc(Cl)nc1 [Example 315, (R)-6-Chloro-N-(4-(morpholin-2-yl)benzyl)nicotinamide hydrochloride] | – | –
0.273 | 0.0121 | O=C(NCc1ccc([C@@H]2CNCCO2)cc1)c1ccc(OCC(F)(F)F)nc1 [Example 316, (R)—N-(4-(Morpholin-2-yl)benzyl)-6-(2,2,2-trifluoroethoxy)nicotinamide hydrochloride] | – | –
12900 | 0.0312 | O=C(NCc1ccc([C@H]2CNCCO2)cc1)c1cccc(Cl)c1 [Example 318, (S)-3-Chloro-N-(4-(morpholin-2-yl)benzyl)benzamide hydrochloride] | – | –

Further lines, the compound ahead of its results:

SMILES | Ki [1, 3] [µM] | Ki [2, 4] [µM] | Ki [1] [µM] | Ki [2] [µM]
C[C@H]1CNC[C@H](c2ccc(NC(=O)c3cccc(Cl)c3)cc2)O1 [Example 309, 3-Chloro-N-(4-((2S,6S)-6-methylmorpholin-2-yl)phenyl)benzamide hydrochloride] | – | 0.0023 | 0.116 | –
C[C@@H]1CNC[C@H](c2ccc(NC(=O)c3ccc(Cl)nc3)cc2)O1 [Example 310, 6-Chloro-N-(4-((2S,6R)-6-methylmorpholin-2-yl)phenyl)nicotinamide hydrochloride] | – | 0.0108 | 0.0476 | –
O=C(Nc1ccc([C@@H]2CNCCO2)cc1)Nc1ccc(C(F)(F)F)cc1 [Example 311, (R)-1-(4-(Morpholin-2-yl)phenyl)-3-(4-(trifluoromethyl)phenyl)urea hydrochloride] | 0.0005 | – | – | 0.0014
O=C(Nc1ccc([C@H]2CNCCO2)cc1)Nc1ccc(C(F)(F)F)cc1 [Example 312, (S)-1-(4-(Morpholin-2-yl)phenyl)-3-(4-(trifluoromethyl)phenyl)urea hydrochloride] | 0.0007 | – | – | 0.0011
O=C(NCc1ccc([C@@H]2CNCCO2)cc1)c1ccc(C(F)(F)F)nc1 [Example 321, (R)—N-(4-(Morpholin-2-yl)benzyl)-6-(trifluoromethyl)nicotinamide hydrochloride] | – | – | 1.31 | 0.026
C[C@H]1CO[C@@H](c2ccc(NC(=O)c3cccc(Cl)c3)cc2)CN1 [Example 322, 3-Chloro-N-[4-((2S,5S)-5-methyl-morpholin-2-yl)-phenyl]-benzamide hydrochloride] | – | – | 0.0188 | 0.0017
C[C@@H]1CO[C@@H](c2ccc(NC(=O)c3cccc(Cl)c3)cc2)CN1 [Example 323, 3-Chloro-N-[4-((2S,5R)-5-methyl-morpholin-2-yl)-phenyl]-benzamide hydrochloride] | – | – | 0.0592 | 0.0013
